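Five concentrations, 48 hours, 96-well plates. At the GI50, growth is halved. At the TGI there is no net growth.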
Assays:
Assay in all cases: growth of human tumour cells (NCI), 48 h
[1] = system: OVCAR-4 ovarian
[2] = system: OVCAR-8 ovarian
[3] = system: OVCAR-5 ovarian
[4] = system: A498 renal
[5] = system: BT-549 breast
[6] = system: OVCAR-3 ovarian
[7] = system: EKVX NSCLC
[8] = system: UO-31 renal
[9] = system: SN12C renal
[10] = system: LOX IMVI melanoma

O=C1c2ccccc2C(=O)c2c(NC(=O)c3ccc4c5c(ncnc35)-c3ccccc3C4=O)cccc21 showed a TGI [1] of over 100 µM, a TGI [2] of over 100 µM and a TGI [3] of over 100 µM. It also gave a TGI [4] of over 100 µM, a TGI [5] of over 100 µM and a TGI [6] of over 100 µM. The TGI [7] was over 100 µM, the TGI [8] was over 100 µM and the TGI [9] was over 100 µM.
In the case of NC(=O)NC(=O)C1CCCCC1C(=O)O (centres undefined), the TGI [10] is reported as over 100 µM, the TGI [1] is reported as over 100 µM and the TGI [2] is reported as over 100 µM. The TGI [3] was over 100 µM, the TGI [4] was over 100 µM and the TGI [5] was over 100 µM. It also gave a TGI [6] of over 100 µM, a TGI [7] of over 100 µM and a TGI [8] of over 100 µM. For the same compound, the TGI [9] was over 100 µM.
CCOC(=O)C(Cc1ccc(OC)cc1)C(=O)OCC was tested, and the GI50 [10] was 3.56 µM, the TGI [10] was 13.7 µM and the GI50 [1] was 6.23 µM. For the same compound, the TGI [1] was 26.5 µM, the GI50 [2] was 5.24 µM and the TGI [2] was 32.5 µM. The GI50 [3] was 11.4 µM, the TGI [3] was 24.2 µM and the GI50 [4] was 6.54 µM. The TGI [4] was 21.4 µM, the GI50 [5] was 3.25 µM and the TGI [5] was 13.5 µM. For the same compound, the GI50 [6] was 3.59 µM, the TGI [6] was 11.6 µM and the GI50 [7] was 5.84 µM. The TGI [7] was 23.7 µM, the GI50 [8] was 5.63 µM and the TGI [8] was 19.7 µM. For the same compound, the GI50 [9] was 5.77 µM and the TGI [9] was 21.7 µM.
C/C(=N\Nc1cccc(Cl)n1)c1ccccn1 gave a GI50 [10] of 0.492 µM, a TGI [10] of over 25 µM and a GI50 [1] of 0.439 µM. It also gave a TGI [1] of over 54.7 µM, a GI50 [2] of 0.51 µM and a TGI [2] of over 100 µM. The GI50 [3] was 0.819 µM, the TGI [3] was over 100 µM and the GI50 [4] was 1.41 µM. The TGI [4] was 4.87 µM, the GI50 [5] was 1.4 µM and the TGI [5] was over 71.8 µM. It also gave a GI50 [6] of 0.379 µM, a TGI [6] of 13.3 µM and a GI50 [7] of 0.411 µM. For the same compound, the TGI [7] was 18.6 µM, the GI50 [8] was 0.466 µM and the TGI [8] was 4.33 µM. It also gave a GI50 [9] of 0.598 µM and a TGI [9] of over 100 µM.
COc1cc(/C=C/C(=O)c2ccc(Nc3nc(Nc4ccccc4)nc(Nc4ccc(Cl)cc4)n3)cc2)cc(OC)c1OC gave a GI50 [10] of 7.19 µM, a TGI [10] of over 32.5 µM and a GI50 [1] of 14 µM. The TGI [1] was over 32.5 µM, the GI50 [2] was 3.34 µM and the TGI [2] was over 32.5 µM. It also gave a GI50 [3] of 10.4 µM, a TGI [3] of over 32.5 µM and a GI50 [4] of 28.2 µM. The TGI [4] was over 32.5 µM, the GI50 [5] was 7.51 µM and the TGI [5] was over 32.5 µM. It also gave a GI50 [6] of 8.62 µM, a TGI [6] of over 32.5 µM and a GI50 [7] of 24.1 µM. For the same compound, the TGI [7] was over 32.5 µM, the GI50 [8] was 2.46 µM and the TGI [8] was over 32.5 µM. The GI50 [9] was 20.9 µM and the TGI [9] was over 32.5 µM.
Compound COc1ccc(C2C3=C(COC3=O)N(CCO)c3cc4c(cc32)OCCO4)cc1OC (centres undefined) has a GI50 [10] of 3.84 µM, a TGI [10] of over 50 µM and a GI50 [1] of 3.67 µM. The TGI [1] was over 50 µM, the GI50 [2] was 4.46 µM and the TGI [2] was over 50 µM. The GI50 [3] was 18.4 µM, the TGI [3] was over 50 µM and the GI50 [4] was 1.61 µM. The TGI [4] was over 15.6 µM, the GI50 [5] was 5.06 µM and the TGI [5] was over 47.9 µM. The GI50 [6] was 1.11 µM, the TGI [6] was 3 µM and the GI50 [7] was 5.98 µM. It also gave a TGI [7] of over 50 µM, a GI50 [8] of 4.09 µM and a TGI [8] of over 50 µM. The GI50 [9] was over 15.7 µM and the TGI [9] was over 50 µM.
Work on N#CC[C@H](C1CCCC1)n1cc(-c2ncnc3[nH]ccc23)cn1 yielded a GI50 [10] of 20.9 µM, a TGI [10] of over 100 µM and a GI50 [1] of 20.4 µM. It also gave a TGI [1] of over 79.1 µM, a GI50 [2] of 30.3 µM and a TGI [2] of over 100 µM. The GI50 [3] was 26.7 µM, the TGI [3] was over 78.5 µM and the GI50 [4] was 13.3 µM. It also gave a TGI [4] of 53.8 µM, a GI50 [5] of 12.8 µM and a TGI [5] of 36 µM. The GI50 [6] was 24.2 µM, the TGI [6] was over 67.3 µM and the GI50 [7] was 14.9 µM. The TGI [7] was over 83.7 µM, the GI50 [8] was 4.53 µM and the TGI [8] was 82 µM. It also gave a GI50 [9] of 22.1 µM and a TGI [9] of over 100 µM.

— PubChem BioAssay (NCI)
